Each block holds one compound with its values, some of them ahead of it. Residues, ends and D or L forms follow the SMILES beside them.
Key:
A. gambiae = assay: Membrane feeding assay, A. gambiae; type: in vivo, Anopheles gambiae; conditions: for effect on feeding on solution containing ATP, in words: 20 μM ATP, CPT at 10 μM
Description: (§1) Experiments with A. gambiae and A. stephensi were made in a climate chamber at 28° C. and 80% RH during the last 6 hours of scotophase. As a sugar meal can interfere with the blood meal by reducing the number of females that feed, the sucrose solution supplied in rearing cages to mosquitoes employed for feeding experiments was reduced to 5%. […] The 5% sucrose solution was presented to mosquitoes from emergence on four 1 cm diam. cotton dental rolls (Hartmann A G, Neuhausen, Switzerland) inserted in 10 ml upturned glass vials placed in holes at each corner of the rearing cage ceiling. Cotton rolls were turned daily in vials and renewed every two days. Mosquitoes were not fed blood and were deprived of sucrose 17 to 20 hours before experiments. Thirty min before a feeding experiment, between 10-25, 6-day-old females that responded to activation by human breath were removed with a mouth aspirator from the rearing cage wall and placed in polystyrol cylinders with the floor cut out (10 cm dm×15 cm high; Semadeni, Ostermundigen, Switzerland) that served as feeding cages. Each cage was covered with mosquito netting at one end and a soft polyurethane lid at the other.
(§2) Mosquitoes were fed for 30 min using a feeding system (Hemotek®, Hemotek Ltd, Blackburn, UK) consisting of 3.5 ml stainless steel reservoirs 37 mm in diameter covered with a 60-90 μm thick silicone-impregnated membrane (Kröber and Guerin, 2007 in “Feeding assays for hard ticks”, Trends in parasitology 23, 445-449; doi 10.1016/j.pt.2007.07.010). Feeding reservoirs reached a temperature of 37° C. within 10 min and were placed on the netting of feeding cages. Mosquitoes were activated using a 200 ms pulse of pure CO2 (volume 6.25 ml) from a pressurised cylinder (Carbagas, Switzerland) using a solenoid valve that caused the CO2 level in the feeding cage to rise to at least 1,500 ppm. Between 3 and 4 sets of 10 feeding cages held in a custom-built Ertacetal® POM frame were tested per day, depending of the number of female mosquitoes available from the colony.
(§3) All compounds were tested in a mosquito feeding solution (FS) consisting of 25 mM dextrose, 25 mM NaCl buffered with 8.93 mM NaHCO3 adjusted to pH 7.4. Feeding responses of A. gambiae and A. stephensi to ATP as a function of dose were tested with between 7 to 10 feeding cages per dose. Each feeding experiment with an antagonist systematically included a treatment containing the FS as negative control along with a treatment containing the FS with 20 pM ATP added as positive control for A. gambiae and with 160 pM ATP added as positive control for A. stephensi. These positive and negative controls permitted to monitor any effect of experimental day on feeding responses as a function of dose for antagonists that were recorded over several days. […] Four to 10 cages each with 10 to 29 mosquitoes were tested per antagonist dose. […] The number of feeding cages used to test other compounds and their mixtures as feeding stimulants or as feeding inhibitors is listed on Table 6. The percentage of fed mosquitoes was estimated by visual inspection of abdominal distention that is indicative of engorgement.
(§4) Pairwise comparisons of A. gambiae electrophysiological (EP) responses to ATP and adenosine alone and combined with a given dose of PR antagonist, EP responses to ATP alone and combined with a given dose of a metal modulator, and EP responses to ATP prior to and after exposure of a sensillum to a given dose of a PR antagonist were made with a one-tailed Wilcoxon signed-rank test for data showing a non-normal distribution, with a paired Student's t-test for normally distributed data showing homogeneous variance and with a Welch's t-test for normally distributed data showing non-homogeneous variance. […]

[1] = system: A. gambiae mouthpart ATP-sensitive receptor; assay: Electrophysiological response to 200 pM ATP with PR antagonist admixed; type: cell-based, Anopheles gambiae; conditions: for effect on EP response to ATP, in words: suramin at 1 nM; for ID95 in nM (±s.e.m.): increasing doses admixed to 200 pM ATP
Description: (§5) The tip recording method was used to record action potentials (spikes) from sensory cells in sensilla on A. gambiae labellum lobes.
(§6) Sensilla were exposed to test compounds and PR antagonists for ca. 2-4 s and spikes were counted in the first 2 s of recordings. Up to 4 test compounds were tested on a sensillum to evaluate potential agonists, each presented at 200 pM. To study responses as a function of dose for agonists ATP, adenosine, AMP, AMP-CPP and ATP+adenosine, up to 7 recordings were made at increasing doses of agonist from the same sensillum. Unless otherwise stated, recordings were made throughout from 4 to 16 sensilla from individual 4-6-day-old females per dose of agonist, antagonist and metal ion modulator. For example, a response curve established over 6 doses of an antagonist using 8 sensilla per dose involved recording from a sensillum of 48 separate mosquitoes. A given dose of a PR antagonist or metal ion modulator was only presented once to a sensillum. Two-second recordings were imported as ASCII files into DataView software for analysis of spike amplitude. Differences in spike amplitude generated by stimulation of one 8v sensillum/female with 1 mM sucrose (n=294 spikes from 6 females) 200 pM adenosine (n=207 spikes from 7 females) and 200 pM ATP (n=192 spikes from 7 females) were compared by measuring the spike amplitude in mV between the highest point of depolarisation and the lowest point of hyperpolarisation.
Pairwise comparisons of A. gambiae electrophysiological (EP) responses to ATP and adenosine alone and combined with a given dose of PR antagonist, EP responses to ATP alone and combined with a given dose of a metal modulator, and EP responses to ATP prior to and after exposure of a sensillum to a given dose of a PR antagonist were made with a one-tailed Wilcoxon signed-rank test for data showing a non-normal distribution, with a paired Student's t-test for normally distributed data showing homogeneous variance and with a Welch's t-test for normally distributed data showing non-homogeneous variance. Effects on feeding of adding ATP, AMP-CPP, adenosine, ATP+adenosine, AMP and ADP-βS, CPT with ATP or adenosine, TMP with ATP+adenosine, TMP+CPT with ATP+adenosine to the FS for A. gambiae, and of adding PR antagonists with ATP to the FS for A. stephensi were compared using one-tailed Mann-Whitney U-test or Welch's t-test, depending on data distribution; Holm's FWEC was applied where treatment comparisons involved the same positive control. Percent feeding inhibition induced by PR antagonists in A. stephensi was calculated using Abbott's formula.
Dose-response models fitted to mosquito data were generated using the ‘drm’ command in the “drc” R package (version 2.5-12). Best fitting models (goodness of fit) and effects of dose of a compound were assessed using, respectively, ‘modelFit’ and ‘noEffect’ functions in the same R package. A 3-parameter logistic model (L3) was fitted to spike-counts recorded to increasing doses of adenosine, AMP, ATP and AMP-CPP. Spike numbers recorded in response to 200 pM ATP with increasing doses of PR antagonists added were analysed using a 4-parameter log-logistic model (LL.4) for A-317491 and spinorphin, using a 4-parameter Weibull model (W1.4) for PPADS, RB-2 and TMP, and using a 3-parameter log-logistic model (LL.3) for suramin. An L3 model was fitted to proportions of females feeding on increasing doses of ATP. Feeding rates on 20 μM ATP with increasing doses of a PR antagonist added were analysed using a 4-parameter log-logistic model (LL.4) with the median of the positive control (20 μM ATP) fixed as the upper asymptote. Response dynamics in 3-parameter models are related to the slope b, the upper asymptote, and inflexion point of the model e (the ED50 value), whereas 4 parameter models also include the lower asymptote parameter. […]

malaria mosquito P1 PR = assay: Electrophysiological response to 200 pM adenosine with PR antagonist admixed; type: cell-based, Anopheles gambiae
Description: as §5
as §6, with “Differences in spike amplitude generated by stimulation of one 8v sensillum/female with 1 mM sucrose (n=294 spikes from 6 females) 200 pM adenosine (n=207 spikes from 7 females) and 200 pM ATP (n=192 spikes from 7 females) were compared by measuring the spike amplitude in mV between the highest point of depolarisation and the lowest point of hyperpolarisation.” left out
Pairwise comparisons of A. gambiae electrophysiological (EP) responses to ATP and adenosine alone and combined with a given dose of PR antagonist, EP responses to ATP alone and combined with a given dose of a metal modulator, and EP responses to ATP prior to and after exposure of a sensillum to a given dose of a PR antagonist were made with a one-tailed Wilcoxon signed-rank test for data showing a non-normal distribution, with a paired Student's t-test for normally distributed data showing homogeneous variance and with a Welch's t-test for normally distributed data showing non-homogeneous variance. […] Percent feeding inhibition induced by PR antagonists in A. stephensi was calculated using Abbott's formula.

A. stephensi = assay: Membrane feeding assay, A. stephensi; type: in vivo, Anopheles stephensi
Description: as §1, §2
as §3, with “with 20 pM ATP added as positive control for A. gambiae and with 160 pM ATP added as positive control for A. stephensi.” left out
as §4

- effect on EP response to ATP, in words ([1]; 200 pM ATP): not
SMILES: Cn1c(=O)c2[nH]c(C3CCCC3)nc2n(C)c1=O [CPT, 8-cyclopentyl-1,3-dimethylxanthine]
- % Engorged mosquitoes (A. gambiae; 10 μM CPT + 20 μM ATP): 65.4 ± 10.2%
- % Engorged mosquitoes (A. gambiae; 10 μM CPT + 1 mM Adenosine): 48.7 ± 7.0%
- effect on feeding on adenosine, in words (A. gambiae; 10 μM CPT, 1 mM adenosine in feeding solution): significantly inhibited
- effect on feeding on solution containing ATP, in words (A. gambiae): not
- effect on EP response to adenosine, in words (malaria mosquito P1 PR; 200 pM adenosine, suramin at 1 nM): inhibited
- duration of inhibition of the response to adenosine (malaria mosquito P1 PR; adenosine presented again approximately 2 min after antagonist): at least 2 min

SMILES: Cc1nc(/N=N/c2ccc(S(=O)(=O)O)cc2S(=O)(=O)O)c(COP(=O)(O)O)c(C=O)c1O [PPADS, pyridoxal phosphate-6-azophenyl-2′,4′-disulfonic acid]
- effect on feeding on solution containing ATP, in words (A. gambiae): inhibited feeding
- % fed mosquitoes (mean ± s.e.m.), ATP + antagonist (A. gambiae; antagonist 100 μM + 20 μM ATP): 33.39%
- Mean no. of spikes per 2 s (±s.e.m.), ATP + antagonist ([1]; antagonist 50 nM + 200 pM ATP): 8.13 spikes per 2 s
- ID95 in nM (±s.e.m.) [1]: 12.66 nM
- % Fed females (mean ± s.e.m.) (A. stephensi; 800 μM, feeding solution with 160 μM ATP): 37.29 ± 3.75%
- inhibition at 800 µM (A. stephensi; Anopheles stephensi, 800 μM, Abbott's formula): 48.9%
- effect on feeding on solution containing ATP, in words (A. stephensi; doses as in Table 8): inhibited feeding

SMILES: Nc1c(S(=O)(=O)O)cc(Nc2ccc(Nc3nc(Cl)nc(Nc4cccc(S(=O)(=O)O)c4)n3)c(S(=O)(=O)O)c2)c2c1C(=O)c1ccccc1C2=O [RB-2, 1-amino-4-[[4-[[4-chloro-6-[[3 (or 4)-sulfophenyl]amino]-1,3,5-triazin-2-yl]amino]-3-sulfophenyl]amino]-9,10-dihydro-9,10-dioxo-2-anthracenesulfonic acid]
- effect on feeding on solution containing ATP, in words (A. gambiae): inhibited feeding
- % fed mosquitoes (mean ± s.e.m.), ATP + antagonist (A. gambiae; antagonist 0.1 μM + 20 μM ATP): 32.88%
- persistent antagonism to ATP presented approximately 2 min later, in words ([1]; 200 pM ATP): not
- effect on EP response to ATP, in words ([1]; 200 pM ATP): inhibited
- Mean no. of spikes per 2 s (±s.e.m.), ATP + antagonist ([1]; antagonist 50 nM + 200 pM ATP): 12.83 spikes per 2 s
- ID95 in nM (±s.e.m.) [1]: 113.02 nM

- effect on EP response to ATP, in words ([1]; 200 pM ATP): inhibited
- Mean no. of spikes per 2 s (±s.e.m.), ATP + antagonist ([1]; antagonist 1 nM + 200 pM ATP): 9.8 spikes per 2 s
- ID95 in nM (±s.e.m.) [1]: 0.43 nM
- ID95 in nM (±s.e.m.) ([1]; listed as spinorphin): ca. 0.4 nM
SMILES: CC(C)C[C@H](N)C(=O)N[C@H](C(=O)N[C@H](C(=O)N[C@@H](Cc1ccc(O)cc1)C(=O)N1CCC[C@H]1C(=O)N[C@@H](Cc1c[nH]c2ccccc12)C(=O)N[C@H](C(=O)O)[C@@H](C)O)C(C)C)C(C)C [Spinorphin, L-leucyl-L-valyl-L-valyl-L-tyrosly-L-prolyl-L-tryptophyl-L-threonine] (H-LVVYPWT-OH)
- % reduction in feeding (A. gambiae; 100 nM, with 20 μM ATP): (100 nM, 27.31%)
- effect on feeding on solution containing ATP, in words (A. gambiae): inhibited feeding
- % fed mosquitoes (mean ± s.e.m.), ATP + antagonist (A. gambiae; antagonist 100 nM + 20 μM ATP): 46.62%

SMILES: Cn1c(=O)c2[nH]cnc2n(C)c1=O [Theophylline, 1,3-dimethylxanthine]
- EP response, adenosine theophylline combination (malaria mosquito P1 PR; 1 μM theophylline + 200 pM adenosine): 17.63±4.48 spikes/2s

From patent publication US20250057791A1, “PROTECTION AGAINST ARTHROPOD PARASITES WITH PURINERGIC RECEPTOR (OPR) ANTAGONISTS” (priority 2021, published 2025)
